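These data come from cells grown in 96-well plates and exposed to compound for 48 hours at five concentrations. TGI marks complete inhibition of growth.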 Bounds are passed on as bounds.

Test systems include 786-0 renal; CAKI-1 renal; HCT-116 colon; HCT-15 colon; HOP-92 NSCLC; HT29 colon; LOX IMVI melanoma; MDA-MB-435; MOLT-4 leukemia; NCI-H460 lung; NCI/ADR-RES ovarian; OVCAR-4 ovarian; PC-3 prostate; SF-268 CNS; SK-MEL-28 melanoma; SK-OV-3 ovarian; SNB-19 CNS; UACC-62 melanoma; UO-31 renal.
What all share (test): NCI tumour cell line growth inhibition, 48 h

`C/C1=C\CC[C@@]2(C)O[C@@H]2[C@H]2OC(=O)C(C)C2C[C@H]1O` (some centres undefined): the TGI in the test with 786-0 renal, in the test with CAKI-1 renal, in the test on HCT-116 colon, with HCT-15 colon, in the test on HOP-92 NSCLC and with HT29 colon was over 100 µM in each case. The TGI in the test on LOX IMVI melanoma, with MDA-MB-435, in the test on MOLT-4 leukemia, with NCI-H460 lung, with NCI/ADR-RES ovarian and with OVCAR-4 ovarian was over 100 µM in each case. Also, the TGI in the test on PC-3 prostate, in the test with SF-268 CNS, in the test on SK-MEL-28 melanoma, with SK-OV-3 ovarian, in the test with SNB-19 CNS and in the test on UACC-62 melanoma was over 100 µM in each case. Further, the TGI in the test on UO-31 renal is over 100 µM.
Consider `CCOC(=O)C1C(c2ccc([N+](=O)[O-])cc2)NC(c2ccc([N+](=O)[O-])cc2)C(C(=O)OC)S1(=O)=O` (centres undefined), for which the TGI with 786-0 renal, with CAKI-1 renal, with HCT-116 colon, with HCT-15 colon, in the test on HT29 colon and in the test with LOX IMVI melanoma was over 100 µM in each case. The TGI with MOLT-4 leukemia, in the test on NCI-H460 lung, in the test with OVCAR-4 ovarian, in the test on SF-268 CNS, in the test on SK-MEL-28 melanoma and in the test with SK-OV-3 ovarian was over 100 µM throughout. Besides, the TGI in the test with SNB-19 CNS, in the test with UACC-62 melanoma and in the test with UO-31 renal was over 100 µM throughout.
Regarding `Nc1ccc(C(=O)NN2C(=O)C(Cl)C2c2ccccc2O)cc1` (centres undefined), the TGI with 786-0 renal, in the test with CAKI-1 renal, in the test with HCT-116 colon, with HCT-15 colon, in the test on HOP-92 NSCLC and with HT29 colon was over 100 µM in each case. For the same compound, the TGI in the test with LOX IMVI melanoma, in the test on MOLT-4 leukemia, with NCI-H460 lung, with OVCAR-4 ovarian, in the test with SF-268 CNS and in the test on SK-MEL-28 melanoma was over 100 µM each time. Besides, the TGI is over 100 µM in the test with SK-OV-3 ovarian, over 100 µM with SNB-19 CNS, over 100 µM in the test on UACC-62 melanoma and 75.2 µM in the test on UO-31 renal.
As for `CSC(=N)N1N=C2c3ccccc3CC[C@@H]2[C@@H]1c1ccccc1`, the TGI was 25.6 µM in the test on 786-0 renal; 17.7 µM with HCT-116 colon; 31 µM with HCT-15 colon; 20.4 µM in the test on HOP-92 NSCLC; 23.6 µM in the test with HT29 colon; 28.5 µM in the test with LOX IMVI melanoma. Also, the TGI with MOLT-4 leukemia came to 35.8 µM; in the test on NCI-H460 lung, 27.2 µM; in the test with OVCAR-4 ovarian, 49.3 µM; in the test with SF-268 CNS, 49.6 µM; in the test on SK-MEL-28 melanoma it was 29.8 µM; in the test on SK-OV-3 ovarian it was 41.6 µM. Besides, the values for the TGI in the test with SNB-19 CNS, in the test with UACC-62 melanoma and with UO-31 renal were 34 µM, 41.7 µM and 22.4 µM, respectively.
For `C[C@@H]1OC2(O)[C@@H]3CCCN3C(=O)N(Cc3ccccc3)N2C1=O` (some centres undefined), the TGI in the test on 786-0 renal, in the test with CAKI-1 renal, with HCT-116 colon, in the test with HCT-15 colon, with HOP-92 NSCLC and with HT29 colon was over 100 µM each time. For the same compound, the TGI with LOX IMVI melanoma, in the test with MDA-MB-435, in the test with MOLT-4 leukemia, with NCI-H460 lung, in the test on NCI/ADR-RES ovarian and in the test on OVCAR-4 ovarian was over 100 µM throughout. Moreover, the TGI in the test with PC-3 prostate, in the test with SF-268 CNS, in the test on SK-MEL-28 melanoma, in the test on SK-OV-3 ovarian, with SNB-19 CNS and in the test on UACC-62 melanoma was over 100 µM in each case.
Consider `C=CC1(c2ccc(Br)cc2)OCCCO1`, for which the TGI in the test on 786-0 renal, in the test on HCT-116 colon, in the test with HCT-15 colon, with HOP-92 NSCLC, in the test on HT29 colon and in the test with LOX IMVI melanoma was over 100 µM each time. The TGI with MDA-MB-435, in the test with MOLT-4 leukemia, in the test with NCI-H460 lung, with NCI/ADR-RES ovarian, in the test on OVCAR-4 ovarian and in the test on PC-3 prostate was over 100 µM in each case. For the same compound, the TGI with SF-268 CNS, in the test on SK-MEL-28 melanoma, with SK-OV-3 ovarian, with SNB-19 CNS, in the test with UACC-62 melanoma and with UO-31 renal was over 100 µM each time.
With `CCCCCCCCCCCCNC1(C)CNCCCNCCNCCCNC1`, the TGI with 786-0 renal was 3.14 µM; in the test with CAKI-1 renal, 3.63 µM; with HCT-116 colon, 2.59 µM; in the test on HOP-92 NSCLC it was 4.55 µM; in the test on HT29 colon, 2.95 µM; with LOX IMVI melanoma it was 3.25 µM. In addition, the TGI in the test on MOLT-4 leukemia was found to be 3.05 µM; with NCI-H460 lung, 2.69 µM; in the test with OVCAR-4 ovarian, 3.82 µM; in the test with SK-MEL-28 melanoma, 3.29 µM; in the test on SK-OV-3 ovarian, 3.21 µM; with UACC-62 melanoma, 3.25 µM. The TGI with UO-31 renal was 5.83 µM.
For the compound `COc1ccc(C(CC(=O)c2ccccc2)C(=O)c2ccc3c(c2)OCO3)cc1` (centres undefined), the TGI with 786-0 renal, in the test on CAKI-1 renal, in the test with HCT-15 colon, with MDA-MB-435, in the test with MOLT-4 leukemia and in the test on NCI-H460 lung was over 100 µM throughout. The TGI in the test on NCI/ADR-RES ovarian, in the test with PC-3 prostate, in the test on SF-268 CNS, in the test with SK-MEL-28 melanoma, with SK-OV-3 ovarian and in the test with SNB-19 CNS was over 100 µM throughout. Moreover, the TGI with UACC-62 melanoma and in the test with UO-31 renal was over 100 µM throughout.
Turning to `CNC(=O)CN(CC(N)=O)C(=O)NC`, the TGI in the test with 786-0 renal, in the test on CAKI-1 renal, in the test with HCT-15 colon, with HOP-92 NSCLC, with HT29 colon and with LOX IMVI melanoma was over 100 µM each time. In addition, the TGI with MOLT-4 leukemia, in the test on NCI-H460 lung, in the test on OVCAR-4 ovarian, in the test on SF-268 CNS, with SK-MEL-28 melanoma and in the test on SK-OV-3 ovarian was over 100 µM throughout. For the same compound, the TGI with SNB-19 CNS, in the test with UACC-62 melanoma and in the test on UO-31 renal was over 100 µM throughout.
Regarding `O=C(Nc1ccccc1)C(=O)C(C(=O)c1ccccc1)C(c1ccccc1)c1ccccc1` (centres undefined), the TGI in the test with 786-0 renal, with CAKI-1 renal, in the test on HCT-15 colon, in the test on HOP-92 NSCLC, in the test with HT29 colon and in the test on LOX IMVI melanoma was over 10 µM in each case. Besides, the TGI in the test on MDA-MB-435, with MOLT-4 leukemia, with OVCAR-4 ovarian, in the test with PC-3 prostate, with SF-268 CNS and with SK-MEL-28 melanoma was over 10 µM each time. Moreover, the TGI in the test on SK-OV-3 ovarian and in the test on UACC-62 melanoma was over 10 µM in each case.
As to `CC1=[N+]([O-])C(C)(C)N(O)C1(C)C`, the TGI in the test with 786-0 renal, in the test with HCT-116 colon, in the test with HCT-15 colon, with HOP-92 NSCLC, in the test on HT29 colon and in the test with LOX IMVI melanoma was over 100 µM in each case. The TGI with MDA-MB-435, in the test with MOLT-4 leukemia, in the test with NCI-H460 lung, in the test on NCI/ADR-RES ovarian, with OVCAR-4 ovarian and in the test with PC-3 prostate was over 100 µM throughout. Also, the TGI with SF-268 CNS, in the test on SK-MEL-28 melanoma, in the test on SK-OV-3 ovarian, in the test with SNB-19 CNS, with UACC-62 melanoma and with UO-31 renal was over 100 µM each time.
Consider `COc1cc(CCCC(O)COc2cccc3c2C2(O)CCCCCC32)cc(OC)c1` (centres undefined), for which the TGI turned out to be 28.7 µM with 786-0 renal; 44.4 µM in the test with CAKI-1 renal; 31.5 µM in the test with HCT-116 colon; 34 µM in the test on HCT-15 colon; 19.9 µM in the test with HOP-92 NSCLC; 23.9 µM in the test with HT29 colon. The TGI is 48.2 µM with MOLT-4 leukemia; 34.7 µM in the test on NCI-H460 lung; 40.6 µM in the test on OVCAR-4 ovarian; 32.9 µM in the test with SF-268 CNS; 31.1 µM with SK-MEL-28 melanoma; 38.5 µM with SK-OV-3 ovarian. Besides, the TGI in the test on SNB-19 CNS is 32 µM; with UACC-62 melanoma it was 30.6 µM; in the test on UO-31 renal, 28.9 µM.
As to `O=S1c2ccc(Cl)cc2CC(SSC2Cc3cc(Cl)ccc3S(=O)c3ccccc32)c2ccccc21` (centres undefined), the TGI with 786-0 renal, in the test with CAKI-1 renal, with HCT-116 colon, with HOP-92 NSCLC, in the test with HT29 colon and with LOX IMVI melanoma was over 100 µM throughout. In addition, the TGI in the test on MOLT-4 leukemia, in the test with NCI-H460 lung, with OVCAR-4 ovarian, in the test with SF-268 CNS, in the test on SK-MEL-28 melanoma and with SK-OV-3 ovarian was over 100 µM throughout. Moreover, the TGI with SNB-19 CNS, in the test with UACC-62 melanoma and in the test on UO-31 renal was over 100 µM each time.
With `O=C(/C=C\c1ccccc1-c1ccccc1)c1ccccc1`, the TGI in the test with 786-0 renal, in the test on CAKI-1 renal, with HCT-116 colon, in the test on HCT-15 colon, with HOP-92 NSCLC and with HT29 colon was over 100 µM throughout. The TGI in the test on MDA-MB-435, in the test with MOLT-4 leukemia, in the test on NCI-H460 lung, with NCI/ADR-RES ovarian, in the test on OVCAR-4 ovarian and in the test on SF-268 CNS was over 100 µM throughout. Further, the TGI in the test with SK-OV-3 ovarian, in the test with UACC-62 melanoma and with UO-31 renal was over 100 µM each time.
On to `O=C1/C(=C/c2ccccc2)CCCC/C1=C\c1ccccc1`, for which the TGI in the test on 786-0 renal was over 100 µM; in the test with CAKI-1 renal, over 100 µM; with HCT-116 colon, over 100 µM; in the test on HCT-15 colon, over 100 µM; in the test with HOP-92 NSCLC, over 100 µM; in the test with HT29 colon, 32 µM. The TGI in the test with LOX IMVI melanoma, in the test on MOLT-4 leukemia, in the test on NCI-H460 lung, with OVCAR-4 ovarian, with SF-268 CNS and in the test on SK-MEL-28 melanoma was over 100 µM throughout. Also, the TGI in the test on SK-OV-3 ovarian, in the test with SNB-19 CNS, with UACC-62 melanoma and with UO-31 renal was over 100 µM throughout.
Regarding `Nc1c(Cl)c([N+](=O)[O-])cc2c1OCCCCO2`, the TGI with 786-0 renal, in the test on CAKI-1 renal, with HCT-116 colon, in the test with HCT-15 colon, in the test on HOP-92 NSCLC and in the test with HT29 colon was over 100 µM throughout. For the same compound, the TGI in the test with LOX IMVI melanoma, in the test on MDA-MB-435, in the test on MOLT-4 leukemia, with NCI-H460 lung, in the test with NCI/ADR-RES ovarian and with OVCAR-4 ovarian was over 100 µM in each case. In addition, the TGI is over 100 µM with PC-3 prostate; over 100 µM in the test with SF-268 CNS; over 100 µM with SK-MEL-28 melanoma; 55.6 µM with SK-OV-3 ovarian; over 100 µM in the test on UACC-62 melanoma; over 100 µM in the test on UO-31 renal.
For `COC(=O)/C(=C/CC(N=C(c1ccccc1)c1ccccc1)C(=O)OC)N=C(c1ccccc1)c1ccccc1` (centres undefined), the TGI with 786-0 renal, in the test with CAKI-1 renal, with HCT-116 colon, in the test with HCT-15 colon, in the test with HT29 colon and in the test with LOX IMVI melanoma was over 100 µM in each case. In addition, the TGI in the test on MOLT-4 leukemia, in the test with NCI-H460 lung, in the test on OVCAR-4 ovarian, in the test with SF-268 CNS, in the test on SK-MEL-28 melanoma and in the test on SK-OV-3 ovarian was over 100 µM throughout. Further, the TGI with SNB-19 CNS, in the test with UACC-62 melanoma and in the test on UO-31 renal was over 100 µM throughout.
